Reference: article PMC3483484 (The Protein Journal, 2012)

Legend:
[1] = parameters: method as in earlier work; details: cited from earlier work
[2] = biological target: T1, human serum albumin (HSA) (Homo sapiens, UniProt P02768); test: Equilibrium dialysis: individual and simultaneous binding (displacement) of 6-MP and site I markers to HSA
T1 construct: Human serum albumin (HSA), fraction V, crystallized and lyophilized; purchased Biomed (Lublin, Poland)
Method: Equilibrium dialysis experiment was performed with bags of 5 cm length made from cellulose tubing, 25 mm diameter when inflated (Dialysis Tubing Cellulose Membranes with molecular weight cut-off of 12 kDa, Sigma Aldrich Co). […] The tubes were closed with parafilm, and were stirred constantly at 20 rotations per minute, at 23 °C. A solution of drug(s) in the compartment B and a solution of albumin in the compartment A were allowed to equilibrate. […] The volumes of the solutions in two compartments remained constant during the dialysis procedure and were not corrected. […] Dialysis with each ligand or mixture of ligands was performed in fivefold and the average value of C b was used as binding data. Protein concentration was 1 × 10^−5 M and ligands concentration was 0.8 × 10^−5 M.
The free-ligands concentrations in compartment B at the beginning of the dialysis and after equilibrium were determined by HPLC. […] A column of LiChrospher 100 RP-18 (5 μm in 4 × 250 mm) (Merck KGaA) was used as the stationary phase. […] All solvents were filtered and degassed prior to use. The injection volume was 50 μL in all the cases. The free ligand concentration was determined using a calibration curve obtained from the concentration of dialyzed ligand in the absence of albumin.
The bound ligand concentration (Cb) was calculated by estimation of free-ligand concentration (Cf) according to the equation [57]:1 [drawing 3] where CL(b) was concentration of bound ligand, CL(f) was final concentration of ligand in buffer compartment and CL(0) was starting concentration of ligand (total ligand concentration before equilibrium dialysis).
The percent binding before and after displacement was compared by using a two-way analysis of variance for balanced data. The confidence intervals based on the residual variance were computed for each pairs of bound fraction before and after displacement.

HSA = details: data from the literature ref 32; cited from earlier work

T1 sequence (P02768 25-609): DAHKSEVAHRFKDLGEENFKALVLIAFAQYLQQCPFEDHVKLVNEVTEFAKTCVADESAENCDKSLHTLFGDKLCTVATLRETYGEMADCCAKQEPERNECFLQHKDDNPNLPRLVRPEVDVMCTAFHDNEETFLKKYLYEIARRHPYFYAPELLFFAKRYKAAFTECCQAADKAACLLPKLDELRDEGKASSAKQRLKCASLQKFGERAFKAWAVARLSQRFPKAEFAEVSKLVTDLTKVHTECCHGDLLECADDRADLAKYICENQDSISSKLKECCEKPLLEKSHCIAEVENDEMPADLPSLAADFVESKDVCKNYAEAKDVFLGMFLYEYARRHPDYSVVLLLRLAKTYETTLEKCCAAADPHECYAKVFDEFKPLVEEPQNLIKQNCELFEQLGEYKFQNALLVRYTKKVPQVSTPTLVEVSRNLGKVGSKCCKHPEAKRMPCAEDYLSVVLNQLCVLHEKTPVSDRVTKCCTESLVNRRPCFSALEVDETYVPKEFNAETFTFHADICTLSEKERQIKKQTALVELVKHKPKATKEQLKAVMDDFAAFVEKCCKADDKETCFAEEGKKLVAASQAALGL

decrease of free fraction (Δ%) of ABE ([2]; by addition of 6-MP, versus ABE alone, p < 0.05)	Kd ([2]; from fb by Eq. (6), before displacement, HSA 1 × 10^−5 M, read-out: Primary association constant log Kexp^HSA (converted))	Bound ligand fraction (fb%) before displacement ([2]; individual binding, HSA 1 × 10^−5 M, ligand 0.8 × 10^−5 M, pH 7.4, 23 °C)	Bound ligand fraction (fb%) of site marker after displacement ([2]; simultaneous binding, in presence of 6-MP, HSA 1 × 10^−5 M, ligands 0.8 × 10^−5 M)	Compound	bound to serum proteins ([1]; humans, of the administered dose ref 39)	half-life in plasma ([1]; oral dose, humans ref 39)	Primary association constant log Klit^HSA (HSA)
–	–	–	–	Sc1ncnc2nc[nH]c12 [6-MP, 6-Mercaptopurine]	approximately 19%	20 to 45 min	–
3.5%	17 µM	37.3 ± 0.7%	39.5 ± 0.6%	CCCCOC(=O)c1ccc(N)cc1 [ABE, n-butyl p-aminobenzoate]	–	–	4.45
